{
  "source": "patent US20240360174A1",
  "about": "“CELL-PENETRATING PEPTIDE SEQUENCES” (Ohio State Innovation Foundation, priority 2016, published 2024)",
  "note": "Bridge positions count the residues as written; N and C are the ends. Square brackets hold non-standard residues; d marks the D form. Ends that are not written are not given here. Phe(4-F) = N[C@@H](Cc1ccc(F)cc1)C(=O)O; 2Nal = N[C@@H](Cc1ccc2ccccc2c1)C(=O)O; d2Nal = N[C@H](Cc1ccc2ccccc2c1)C(=O)O; Pip = O=C(O)[C@@H]1CCCCN1; Dap = NC[C@H](N)C(=O)O",
  "data": [
    {"test_system": "HeLa cells", "test": "Cellular uptake / cytosolic delivery efficiency of NF-labelled peptides by flow cytometry", "format": "cell-based", "conditions": "2 h, 5 mM naphthofluorescein-labelled peptide, relative to CPP 1 (100%), mean ± S.D. of three independent experiments", "source_text": "Absolute cytosolic delivery efficiency is the ratio of cytosolic concentration of a CPP (or a CPP-cargo conjugate) over the concentration of the CPP (or the CPP-cargo conjugate) in the growth medium. Relative cytosolic delivery efficiency refers to the concentration of a CPP in the cytosol compared to the concentration of a control CPP in the cytosol. Quantification can be achieved by fluorescently labeling the CPP (e.g., with a FTIC dye) and measuring the fluorescence intensity using techniques well-known in the art.\nIn particular embodiments, relative cytosolic delivery efficiency is determined by comparing (i) the amount of a CPP of the invention internalized by a cell type (e.g., HeLa cells) to (ii) the amount of the control CPP internalized by the same cell type. To measure relative cytosolic delivery efficiency, the cell type may be incubated in the presence of a cell-penetrating peptide of the invention for a specified period of time (e.g., 30 minutes, 1 hour, 2 hours, etc.) after which the amount of the CPP internalized by the cell is quantified using methods known in the art, e.g., fluorescence microscopy. Separately, the same concentration of the control CPP is incubated in the presence of the cell type over the same period of time, and the amount of the control CPP internalized by the cell is quantified.\nTo determine cellular uptake efficiency of the CPPs disclosed herein, HeLa cells were cultured in 12-well plates (1.5×10^5 cells per well) overnight. The cells were incubated for 2 h with […] naphthofluorescein (NF)-labelled peptide in cellular media. At the end of incubation, the cells were washed with DPBS twice, detached from the plate with 0.25% trypsin, diluted into clear DMEM, pelleted at 250 g for 5 min, washed twice with DPBS, resuspended in DPBS, and analyzed on a BD FACS LSR II flow cytometer. For NF-labelled peptides, a 633-nm laser was used for excitation and the fluorescence emission was analyzed in the APC channel. Absolute cellular uptake efficiency was determined by comparing the concentration (via fluorescence intensity) of the CPP in the cytosol to the concentration in the extracellular medium.", "units": {"Relative Cytosolic Delivery Efficiency": "%"}, "values": [
      {"substance": "cyclo(FFRFRRQ) (cyclic) [SAR 38]", "Relative Cytosolic Delivery Efficiency": "106 ± 22"},
      {"substance": "cyclo(Pip-Nal-Arg-Arg-arg-arg-glu) (cyclo([Pip][2Nal]RR[dR][dR][dE]); SMILES N=C(N)NCCC[C@@H]1NC(=O)[C@H](Cc2ccc3ccccc3c2)NC(=O)[C@@H]2CCCCN2C(=O)[C@@H](CCC(=O)O)NC(=O)[C@@H](CCCNC(=N)N)NC(=O)[C@@H](CCCNC(=N)N)NC(=O)[C@H](CCCNC(=N)N)NC1=O) [Pin1 16]", "Relative Cytosolic Delivery Efficiency": "18 ± 2"},
      {"substance": "Ac-(Lys-fFRrRrD) (K[dF]FR[dR]R[dR]D; not fully specified (N-terminus, bridges); printed as Ac-(Lys-fFRrRrD); also: cyclic, closure sites not given here) [SAR 66]", "Relative Cytosolic Delivery Efficiency": "129 ± 9"},
      {"substance": "cyclo(FRRFRRQ) (cyclic) [SAR 29]", "Relative Cytosolic Delivery Efficiency": "31 ± 3"},
      {"substance": "cyclo(Pip-Nal-nal-Arg-arg-arg-Glu) [Pin1 23]", "Relative Cytosolic Delivery Efficiency": "215 ± 86"},
      {"substance": "cyclo(RFFFRRRQ) (cyclic) [SAR 48]", "Relative Cytosolic Delivery Efficiency": "167 ± 10"},
      {"substance": "cyclo(RRFFRRRQ) (cyclic) [SAR 47]", "Relative Cytosolic Delivery Efficiency": "115 ± 20"},
      {"substance": "cyclo(Pip-Nal-nal-Arg-arg-arg-glu) [Pin1 24]", "Relative Cytosolic Delivery Efficiency": "141 ± 64"},
      {"substance": "cyclo(fFΦrRrQ) (cyclo([dF]F[d2Nal][dR]R[dR]Q); SMILES N=C(N)NCCC[C@@H]1NC(=O)[C@@H](CCCNC(=N)N)NC(=O)[C@@H](Cc2ccc3ccccc3c2)NC(=O)[C@H](Cc2ccccc2)NC(=O)[C@@H](Cc2ccccc2)NC(=O)[C@H](CCC(N)=O)NC(=O)[C@@H](CCCNC(=N)N)NC1=O) [SAR 61]", "Relative Cytosolic Delivery Efficiency": "330 ± 101"},
      {"substance": "cyclo(Pip-Nal-phe-Arg-arg-arg-glu) (cyclo([Pip][2Nal][dF]R[dR][dR][dE]); SMILES N=C(N)NCCC[C@@H]1NC(=O)[C@@H](Cc2ccccc2)NC(=O)[C@H](Cc2ccc3ccccc3c2)NC(=O)[C@@H]2CCCCN2C(=O)[C@@H](CCC(=O)O)NC(=O)[C@@H](CCCNC(=N)N)NC(=O)[C@@H](CCCNC(=N)N)NC1=O) [Pin1 21]", "Relative Cytosolic Delivery Efficiency": "27 ± 15"},
      {"substance": "cyclo(FRRFRFQ) (cyclic) [SAR 41]", "Relative Cytosolic Delivery Efficiency": "101 ± 16"},
      {"substance": "cyclo(fFfrRrQ) (cyclo([dF]F[dF][dR]R[dR]Q); SMILES N=C(N)NCCC[C@@H]1NC(=O)[C@@H](CCCNC(=N)N)NC(=O)[C@@H](Cc2ccccc2)NC(=O)[C@H](Cc2ccccc2)NC(=O)[C@@H](Cc2ccccc2)NC(=O)[C@H](CCC(N)=O)NC(=O)[C@@H](CCCNC(=N)N)NC1=O) [SAR 58]", "Relative Cytosolic Delivery Efficiency": "280 ± 106"},
      {"substance": "cyclo(RFFRRRQ) (cyclic) [SAR 31]", "Relative Cytosolic Delivery Efficiency": "63 ± 19"},
      {"substance": "cyclo(FΦRrRrQ) (cyclo(F[2Nal]R[dR]R[dR]Q); SMILES N=C(N)NCCC[C@@H]1NC(=O)[C@H](Cc2ccc3ccccc3c2)NC(=O)[C@H](Cc2ccccc2)NC(=O)[C@H](CCC(N)=O)NC(=O)[C@@H](CCCNC(=N)N)NC(=O)[C@H](CCCNC(=N)N)NC(=O)[C@@H](CCCNC(=N)N)NC1=O) [SAR 55]", "Relative Cytosolic Delivery Efficiency": "212 ± 42"},
      {"substance": "cyclo(FRRFRQ) (cyclic) [SAR 23]", "Relative Cytosolic Delivery Efficiency": "38 ± 10"},
      {"substance": "cyclo(FfFrRrQ) (cyclo(F[dF]F[dR]R[dR]Q); SMILES N=C(N)NCCC[C@@H]1NC(=O)[C@@H](CCCNC(=N)N)NC(=O)[C@H](Cc2ccccc2)NC(=O)[C@@H](Cc2ccccc2)NC(=O)[C@H](Cc2ccccc2)NC(=O)[C@H](CCC(N)=O)NC(=O)[C@@H](CCCNC(=N)N)NC1=O) [SAR 60]", "Relative Cytosolic Delivery Efficiency": "205 ± 30"},
      {"substance": "cyclo(FFFRRRRRR (FFFRRRRRRQ; cyclic) [SAR 54]", "Relative Cytosolic Delivery Efficiency": "141 ± 10"},
      {"substance": "cyclo(FRRRFQ) (cyclic) [SAR 24]", "Relative Cytosolic Delivery Efficiency": "25 ± 4"},
      {"substance": "SAR 69 (CWWVRRRRC; disulfide 1-9)", "Relative Cytosolic Delivery Efficiency": 67},
      {"substance": "cyclo(Pip-Nal-Nal-Arg-arg-arg-Glu) [Pin1 18]", "Relative Cytosolic Delivery Efficiency": "340 ± 130"},
      {"substance": "cyclo(FFRRRRQ) (cyclic) [SAR 28]", "Relative Cytosolic Delivery Efficiency": "89 ± 27"},
      {"substance": "Ac-(Dap-fFRrRrD) (Ac-[Dap][dF]FR[dR]R[dR]D; not fully specified (bridges); printed as Ac-(Dap-fFRrRrD); also: cyclic, closure sites not given here) [SAR 67]", "Relative Cytosolic Delivery Efficiency": "126 ± 33"},
      {"substance": "cyclo(RFRRFRQ) (cyclic) [SAR 32]", "Relative Cytosolic Delivery Efficiency": "94 ± 9"},
      {"substance": "cyclo(FFrRrQ) (cyclo(FF[dR]R[dR]Q); SMILES N=C(N)NCCC[C@@H]1NC(=O)[C@@H](CCCNC(=N)N)NC(=O)[C@H](Cc2ccccc2)NC(=O)[C@H](Cc2ccccc2)NC(=O)[C@H](CCC(N)=O)NC(=O)[C@@H](CCCNC(=N)N)NC1=O) [SAR 20]", "Relative Cytosolic Delivery Efficiency": "118 ± 5"},
      {"substance": "cyclo(FΦrRrQ) (cyclo(F[2Nal][dR]R[dR]Q); SMILES N=C(N)NCCC[C@@H]1NC(=O)[C@@H](CCCNC(=N)N)NC(=O)[C@H](Cc2ccc3ccccc3c2)NC(=O)[C@H](Cc2ccccc2)NC(=O)[C@H](CCC(N)=O)NC(=O)[C@@H](CCCNC(=N)N)NC1=O) [SAR 64]", "Relative Cytosolic Delivery Efficiency": "63 ± 11"},
      {"substance": "cyclo(FFRRRFQ) (cyclic) [SAR 35]", "Relative Cytosolic Delivery Efficiency": "158 ± 21"},
      {"substance": "cyclo(XXRRRRQ) (cyclo([Phe(4-F)][Phe(4-F)]RRRRQ); SMILES N=C(N)NCCC[C@@H]1NC(=O)[C@H](CCCNC(=N)N)NC(=O)[C@H](CCCNC(=N)N)NC(=O)[C@H](Cc2ccc(F)cc2)NC(=O)[C@H](Cc2ccc(F)cc2)NC(=O)[C@H](CCC(N)=O)NC(=O)[C@H](CCCNC(=N)N)NC1=O) [SAR 56]", "Relative Cytosolic Delivery Efficiency": "165 ± 22"},
      {"substance": "cyclo(FFFRRRRRQ (cyclic) [SAR 53]", "Relative Cytosolic Delivery Efficiency": "145 ± 27"},
      {"substance": "cyclo(RRFFFRRQ) (cyclic) [SAR 49]", "Relative Cytosolic Delivery Efficiency": "112 ± 20"},
      {"substance": "cyclo(FRFRRRQ) (cyclic) [SAR 33]", "Relative Cytosolic Delivery Efficiency": "132 ± 57"},
      {"substance": "cyclo(FfFRrRQ) (cyclo(F[dF]FR[dR]RQ); SMILES N=C(N)NCCC[C@@H]1NC(=O)[C@H](Cc2ccccc2)NC(=O)[C@@H](Cc2ccccc2)NC(=O)[C@H](Cc2ccccc2)NC(=O)[C@H](CCC(N)=O)NC(=O)[C@H](CCCNC(=N)N)NC(=O)[C@@H](CCCNC(=N)N)NC1=O) [SAR 57]", "Relative Cytosolic Delivery Efficiency": "218 ± 9"},
      {"substance": "cyclo(Pip-Nal-Nal-Arg-arg-arg-glu) [Pin1 17]", "Relative Cytosolic Delivery Efficiency": "506 ± 120"},
      {"substance": "cyclo(FRRRFRQ) (cyclic) [SAR 30]", "Relative Cytosolic Delivery Efficiency": "20 ± 3"},
      {"substance": "SAR 68 (CWWRRRRC; disulfide 1-8)", "Relative Cytosolic Delivery Efficiency": 51},
      {"substance": "cyclo(Pip-Nal-phe-Arg-arg-arg-Glu) (cyclo([Pip][2Nal][dF]R[dR][dR]E); SMILES N=C(N)NCCC[C@@H]1NC(=O)[C@@H](Cc2ccccc2)NC(=O)[C@H](Cc2ccc3ccccc3c2)NC(=O)[C@@H]2CCCCN2C(=O)[C@H](CCC(=O)O)NC(=O)[C@@H](CCCNC(=N)N)NC(=O)[C@@H](CCCNC(=N)N)NC1=O) [Pin1 22]", "Relative Cytosolic Delivery Efficiency": "15 ± 6"}
    ]}
  ]
}
